PubChem BioAssay (NCI)
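1) Cells in 96-well plates. 2) Compound, 48 h, 5 concentrations. 3) Linear interpolation between surrounding doses. 4) Unreached endpoint = highest concentration. GI50 marks 50% less growth. TGI: concentration producing complete growth inhibition.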

How the values were obtained:
Assay in all cases: NCI anticancer screen, dose series, 48 h
TK-10 renal = test system: TK-10 renal
HCT-15 colon = test system: HCT-15 colon
COLO 205 colon = test system: COLO 205 colon
KM12 colon = test system: KM12 colon
CAKI-1 renal = test system: CAKI-1 renal
MDA-MB-435 = test system: MDA-MB-435
OVCAR-8 ovarian = test system: OVCAR-8 ovarian
OVCAR-3 ovarian = test system: OVCAR-3 ovarian
NCI-H226 lung = test system: NCI-H226 lung
NCI-H460 lung = test system: NCI-H460 lung
OVCAR-5 ovarian = test system: OVCAR-5 ovarian
MDA-N = test system: MDA-N
HOP-92 NSCLC = test system: HOP-92 NSCLC
SNB-75 CNS = test system: SNB-75 CNS
IGROV1 ovarian = test system: IGROV1 ovarian
UO-31 renal = test system: UO-31 renal
NCI-H522 lung = test system: NCI-H522 lung
ACHN renal = test system: ACHN renal
SK-MEL-5 melanoma = test system: SK-MEL-5 melanoma
T-47D breast = test system: T-47D breast
OVCAR-4 ovarian = test system: OVCAR-4 ovarian
HOP-62 NSCLC = test system: HOP-62 NSCLC
UACC-257 melanoma = test system: UACC-257 melanoma
MDA-MB-231 breast = test system: MDA-MB-231 breast
A498 renal = test system: A498 renal
SF-295 CNS = test system: SF-295 CNS
NCI-H23 lung = test system: NCI-H23 lung
UACC-62 melanoma = test system: UACC-62 melanoma
SK-OV-3 ovarian = test system: SK-OV-3 ovarian
NCI/ADR-RES ovarian = test system: NCI/ADR-RES ovarian
SK-MEL-28 melanoma = test system: SK-MEL-28 melanoma
SW-620 colon = test system: SW-620 colon
PC-3 prostate = test system: PC-3 prostate
SF-539 CNS = test system: SF-539 CNS
DU-145 prostate = test system: DU-145 prostate
SR leukemia = test system: SR leukemia
SN12C renal = test system: SN12C renal
MALME-3M melanoma = test system: MALME-3M melanoma
RPMI-8226 leukemia = test system: RPMI-8226 leukemia
HT29 colon = test system: HT29 colon
U251 CNS = test system: U251 CNS
SNB-19 CNS = test system: SNB-19 CNS
CCRF-CEM leukemia = test system: CCRF-CEM leukemia
HCT-116 colon = test system: HCT-116 colon
HL-60(TB) leukemia = test system: HL-60(TB) leukemia
M14 melanoma = test system: M14 melanoma
K-562 leukemia = test system: K-562 leukemia
BT-549 breast = test system: BT-549 breast
MCF7 breast = test system: MCF7 breast
HCC-2998 colon = test system: HCC-2998 colon
SK-MEL-2 melanoma = test system: SK-MEL-2 melanoma
RXF 393 renal = test system: RXF 393 renal
A549 NSCLC = test system: A549 NSCLC
LOX IMVI melanoma = test system: LOX IMVI melanoma
SF-268 CNS = test system: SF-268 CNS
HS 578T breast = test system: HS 578T breast
MOLT-4 leukemia = test system: MOLT-4 leukemia
EKVX NSCLC = test system: EKVX NSCLC
786-0 renal = test system: 786-0 renal

With `NC(N)=N/N=C/c1c(-c2ccc(Cl)cc2)nc2sc(Cl)cn12` the TGI (TK-10 renal) was 3.1 µM, the TGI (HCT-15 colon) was 2.69 µM and the TGI (COLO 205 colon) was 2.12 µM. For the same compound, the TGI (KM12 colon) was 2.2 µM, the TGI (CAKI-1 renal) was 2.82 µM and the TGI (MDA-MB-435) was 2.57 µM. For the same compound, the TGI (OVCAR-8 ovarian) was 2.53 µM, the TGI (OVCAR-3 ovarian) was 2.88 µM and the TGI (NCI-H226 lung) was 3.36 µM. The TGI (NCI-H460 lung) was 3.21 µM, the TGI (OVCAR-5 ovarian) was 3.1 µM and the TGI (MDA-N) was 3.13 µM. It also gave a TGI (HOP-92 NSCLC) of 3.17 µM, a TGI (SNB-75 CNS) of 2.72 µM and a TGI (IGROV1 ovarian) of 2.04 µM. For the same compound, the TGI (UO-31 renal) was 3.1 µM, the TGI (NCI-H522 lung) was 3.47 µM and the TGI (ACHN renal) was > 100 µM. For the same compound, the TGI (SK-MEL-5 melanoma) was 2.97 µM, the TGI (T-47D breast) was 2.64 µM and the TGI (OVCAR-4 ovarian) was 2.18 µM. It also gave a TGI (HOP-62 NSCLC) of 3.25 µM, a TGI (UACC-257 melanoma) of 3.2 µM and a TGI (MDA-MB-231 breast) of 3.29 µM. The TGI (A498 renal) was 3.17 µM, the TGI (SF-295 CNS) was 3.18 µM and the TGI (NCI-H23 lung) was 2.48 µM. For the same compound, the TGI (UACC-62 melanoma) was 3.25 µM, the TGI (SK-OV-3 ovarian) was 3.34 µM and the TGI (NCI/ADR-RES ovarian) was 3.31 µM. For the same compound, the TGI (SK-MEL-28 melanoma) was 3.21 µM, the TGI (SW-620 colon) was 2.28 µM and the TGI (PC-3 prostate) was > 100 µM. It also gave a TGI (SF-539 CNS) of 2.53 µM and a TGI (DU-145 prostate) of 3.37 µM.
`Cc1ccccc1CNc1c2ccccc2nc2ccccc12` gave a GI50 (SR leukemia) of 1.72 µM, a TGI (SR leukemia) of 5.87 µM and a GI50 (SN12C renal) of 2.47 µM. The TGI (SN12C renal) was 8.97 µM, the GI50 (TK-10 renal) was 2.78 µM and the TGI (TK-10 renal) was 11.7 µM. The GI50 (MALME-3M melanoma) was 1.66 µM, the TGI (MALME-3M melanoma) was 3.11 µM and the GI50 (HCT-15 colon) was 1.8 µM. It also gave a TGI (HCT-15 colon) of 4.02 µM, a GI50 (COLO 205 colon) of 1.6 µM and a TGI (COLO 205 colon) of 3.5 µM. The GI50 (RPMI-8226 leukemia) was 1.52 µM, the TGI (RPMI-8226 leukemia) was 4.56 µM and the GI50 (HT29 colon) was 1.97 µM. It also gave a TGI (HT29 colon) of 10 µM, a GI50 (KM12 colon) of 2.95 µM and a TGI (KM12 colon) of 10.1 µM. For the same compound, the GI50 (CAKI-1 renal) was 1.42 µM, the TGI (CAKI-1 renal) was 3.45 µM and the GI50 (U251 CNS) was 2.91 µM. The TGI (U251 CNS) was 11.4 µM, the GI50 (SNB-19 CNS) was 3.27 µM and the TGI (SNB-19 CNS) was 13.7 µM. For the same compound, the GI50 (MDA-MB-435) was 1.67 µM, the TGI (MDA-MB-435) was 3.18 µM and the GI50 (OVCAR-8 ovarian) was 2.63 µM. The TGI (OVCAR-8 ovarian) was 12.2 µM, the GI50 (CCRF-CEM leukemia) was 1.97 µM and the TGI (CCRF-CEM leukemia) was 12.6 µM. It also gave a GI50 (HCT-116 colon) of 1.11 µM, a TGI (HCT-116 colon) of 8.31 µM and a GI50 (HL-60(TB) leukemia) of 2.17 µM. The TGI (HL-60(TB) leukemia) was 5.06 µM, the GI50 (M14 melanoma) was 1.51 µM and the TGI (M14 melanoma) was 3.2 µM. For the same compound, the GI50 (K-562 leukemia) was 2.32 µM, the TGI (K-562 leukemia) was 11.4 µM and the GI50 (OVCAR-3 ovarian) was 2.39 µM. It also gave a TGI (OVCAR-3 ovarian) of 5.93 µM, a GI50 (NCI-H226 lung) of 2.24 µM and a TGI (NCI-H226 lung) of 6.17 µM. For the same compound, the GI50 (NCI-H460 lung) was 1.86 µM, the TGI (NCI-H460 lung) was 4.71 µM and the GI50 (BT-549 breast) was 2.18 µM. It also gave a TGI (BT-549 breast) of 6.15 µM, a GI50 (OVCAR-5 ovarian) of 2.08 µM and a TGI (OVCAR-5 ovarian) of 7.57 µM. The GI50 (HOP-92 NSCLC) was 0.834 µM, the TGI (HOP-92 NSCLC) was 4.54 µM and the GI50 (SNB-75 CNS) was 1.7 µM. It also gave a TGI (SNB-75 CNS) of 8.36 µM, a GI50 (MCF7 breast) of 1.84 µM and a TGI (MCF7 breast) of 4.78 µM. For the same compound, the GI50 (IGROV1 ovarian) was 2 µM, the TGI (IGROV1 ovarian) was 5.01 µM and the GI50 (HCC-2998 colon) was 1.73 µM. The TGI (HCC-2998 colon) was 3.65 µM, the GI50 (UO-31 renal) was 1.33 µM and the TGI (UO-31 renal) was 3.91 µM. For the same compound, the GI50 (SK-MEL-2 melanoma) was 2.01 µM, the TGI (SK-MEL-2 melanoma) was 4.19 µM and the GI50 (RXF 393 renal) was 1.63 µM. For the same compound, the TGI (RXF 393 renal) was 3.14 µM, the GI50 (NCI-H522 lung) was 1.61 µM and the TGI (NCI-H522 lung) was 4.32 µM. The GI50 (ACHN renal) was 1.65 µM, the TGI (ACHN renal) was 3.66 µM and the GI50 (SK-MEL-5 melanoma) was 1.69 µM. The TGI (SK-MEL-5 melanoma) was 3.05 µM, the GI50 (A549 NSCLC) was 2.09 µM and the TGI (A549 NSCLC) was 5.22 µM. For the same compound, the GI50 (T-47D breast) was 2.08 µM, the TGI (T-47D breast) was 5.93 µM and the GI50 (OVCAR-4 ovarian) was 1.92 µM. For the same compound, the TGI (OVCAR-4 ovarian) was 6.4 µM, the GI50 (HOP-62 NSCLC) was 3.02 µM and the TGI (HOP-62 NSCLC) was 14.6 µM. The GI50 (LOX IMVI melanoma) was 1.49 µM, the TGI (LOX IMVI melanoma) was 2.93 µM and the GI50 (UACC-257 melanoma) was 2.2 µM. The TGI (UACC-257 melanoma) was 5.23 µM, the GI50 (SF-268 CNS) was 2.67 µM and the TGI (SF-268 CNS) was 9.33 µM. The GI50 (MDA-MB-231 breast) was 1.7 µM, the TGI (MDA-MB-231 breast) was 4.19 µM and the GI50 (A498 renal) was 1.42 µM. For the same compound, the TGI (A498 renal) was 2.96 µM, the GI50 (SF-295 CNS) was 2.67 µM and the TGI (SF-295 CNS) was 11.8 µM. The GI50 (NCI-H23 lung) was 1.71 µM, the TGI (NCI-H23 lung) was 4.24 µM and the GI50 (HS 578T breast) was 2.34 µM. For the same compound, the TGI (HS 578T breast) was 5.99 µM, the GI50 (UACC-62 melanoma) was 1.83 µM and the TGI (UACC-62 melanoma) was 4.28 µM. It also gave a GI50 (SK-OV-3 ovarian) of 2.62 µM, a TGI (SK-OV-3 ovarian) of 9.91 µM and a GI50 (NCI/ADR-RES ovarian) of 2.07 µM. The TGI (NCI/ADR-RES ovarian) was 6.16 µM, the GI50 (SK-MEL-28 melanoma) was 2.15 µM and the TGI (SK-MEL-28 melanoma) was 5.02 µM. The GI50 (MOLT-4 leukemia) was 2.67 µM, the TGI (MOLT-4 leukemia) was 8.14 µM and the GI50 (EKVX NSCLC) was 2.43 µM. For the same compound, the TGI (EKVX NSCLC) was 8.02 µM, the GI50 (SW-620 colon) was 1.77 µM and the TGI (SW-620 colon) was 5.64 µM. The GI50 (PC-3 prostate) was 1.88 µM, the TGI (PC-3 prostate) was 8.79 µM and the GI50 (SF-539 CNS) was 1.84 µM. It also gave a TGI (SF-539 CNS) of 4 µM, a GI50 (786-0 renal) of 2.54 µM and a TGI (786-0 renal) of 7.47 µM. It also gave a GI50 (DU-145 prostate) of 2.91 µM and a TGI (DU-145 prostate) of 10.1 µM.
